# According to article PMC10235067, “Increased renal elimination of endogenous and synthetic pyrimidine nucleosides in concentrative nucleoside transporter 1 deficient mice” (Nature Communications, 2023):
# Where “and” joins values, the source holds several entries; their conditions need not be identical. Equal entries are not always repeated. Structures can show the parent of a compound that is named as a salt.
# What was measured:
# [1] = Gemcitabine plasma pharmacokinetics in Slc28a1+/+ and Slc28a1-/- mice; settings: for half-life: T1/2 (terminal half-life); for Vd: Vss
# KPC cells [2] = experiment: Survival of mice with orthotopic syngeneic KPC pancreatic tumors treated with dFdC
# KPC cells [3] = experiment: Tumor burden by bioluminescent imaging after orthotopic implantation of KPC-LUC cells; settings: orthotopic KPC-LUC tumors, Gemcitabine group, Fig. 6C source data
# [4] = Gemcitabine in plasma, WT mice, iv gemcitabine 50mg/kg, per mouse
# [5] = female, mouse, plasma, iv, 50 mg/kg, Slc28a1+/+ mice, plasma, single i.v. dFdC 50 mg/kg
# [6] = female, mouse, plasma, iv, 50 mg/kg, Slc28a1-/- mice, single i.v. dFdC 50 mg/kg
smiles,measurement,setting,value
"Nc1ccn([C@@H]2O[C@H](CO)[C@@H](O)C2(F)F)c(=O)n1 [dFdC, Gemcitabine hydrochloride, reference compound]",AUC_%Extrap_obs,[1]; [4],9.702% and 18.5437% and 0.7839% and 0.5327% and 0.8134% and 0.9221%
same,AUC_%Extrap_pred,[1]; [4],10.3129% and 18.7708% and 0.3382% and 0.2157% and 0.3062% and 0.3788%
same,AUCall,[1]; [4],81617.2 ng·min/mL and 71149.3 ng·min/mL and 92539.9 ng·min/mL and 85061.6 ng·min/mL and 98831 ng·min/mL
same,AUClast,[1]; [4],81617.2 ng·min/mL and 69657.4 ng·min/mL and 91120.1 ng·min/mL and 83197 ng·min/mL and 96469.4 ng·min/mL
same,AUClast_D,[1]; [4],1212.13 kg·ng·min/mL/mg and 1632.34 kg·ng·min/mL/mg and 1393.15 kg·ng·min/mL/mg and 1822.4 kg·ng·min/mL/mg and 1663.94 kg·ng·min/mL/mg and 1929.39 kg·ng·min/mL/mg
same,AUMCINF_obs,[1]; [4],5069956 min*min*ng/mL and 20471433 min*min*ng/mL and 1064873 min*min*ng/mL and 1254821 min*min*ng/mL and 1108567 min*min*ng/mL and 1728699 min*min*ng/mL
same,AUMCINF_pred,[1]; [4],5292862 min*min*ng/mL and 20755711 min*min*ng/mL and 1020250 min*min*ng/mL and 1213897 min*min*ng/mL and 1047980 min*min*ng/mL and 1652866 min*min*ng/mL
same,AUMC_%Extrap_obs,[1]; [4],62.651% and 92.1199% and 7.346% and 5.469% and 8.737% and 7.417%
same,AUMC_%Extrap_pred,[1]; [4],64.2239% and 92.2278% and 3.293% and 2.282% and 3.461% and 3.17%
same,AUMClast,[1]; [4],1893578 min*min*ng/mL and 1613171 min*min*ng/mL and 986649 min*min*ng/mL and 1186197 min*min*ng/mL and 1011712 min*min*ng/mL and 1600474 min*min*ng/mL
same,C0,[1]; [4],1738.74 ng/mL and 4426.87 ng/mL and 4597.66 ng/mL and 7279.69 ng/mL and 6681.38 ng/mL and 5877.84 ng/mL
same,Cl_obs,[1]; [4],499.014 mL/min/kg and 712.172 mL/min/kg and 545.803 mL/min/kg and 596.095 mL/min/kg and 513.519 mL/min/kg
same,Cl_pred,[1]; [4],739.914 mL/min/kg and 497.623 mL/min/kg and 715.371 mL/min/kg and 547.543 mL/min/kg and 599.143 mL/min/kg and 516.335 mL/min/kg
same,Clast,[1]; [4],26.282 ng/mL and 23.9761 ng/mL and 24.8646 ng/mL and 23.6637 ng/mL and 31.0775 ng/mL and 39.3598 ng/mL
same,Clast_pred,[1]; [4],28.1263 ng/mL and 24.3375 ng/mL and 10.6806 ng/mL and 9.552 ng/mL and 11.6372 ng/mL and 16.0822 ng/mL
same,Cmax_D,[1]; [4],35.2165 kg·ng/mL/mg and 78.8031 kg·ng/mL/mg and 72.4804 kg·ng/mL/mg and 90.8107 kg·ng/mL/mg and 83.992 kg·ng/mL/mg and 78.0677 kg·ng/mL/mg
same,HL_Lambda_z,[1]; [4],171.744 min and 537.158 min and 15.3422 min and 14.2945 min and 15.2178 min and 15.8118 min
same,Lambda_z,[1]; [4],0.004036 min⁻¹ and 0.00129 min⁻¹ and 0.04518 min⁻¹ and 0.04849 min⁻¹ and 0.04555 min⁻¹ and 0.04384 min⁻¹
same,MRTINF_obs,[1]; [4],75.5375 min and 204.311 min and 15.1675 min and 13.6977 min and 13.2162 min and 17.7544 min
same,MRTINF_pred,[1]; [4],78.3253 min and 206.57 min and 14.5971 min and 13.2932 min and 12.5578 min and 17.0687 min
same,MRTlast,[1]; [4],31.2438 min and 19.7651 min and 14.1643 min and 13.018 min and 12.1604 min and 16.5905 min
same,Tlast,[1]; [4],240 min and 120 min
same,Tmax,[1]; [4],15 min
same,Vss_obs,[1]; [4],56.2718 L/kg and 101.954 L/kg and 10.8018 L/kg and 7.47626 L/kg and 7.87812 L/kg and 9.11723 L/kg
same,Vss_pred,[1]; [4],57.954 L/kg and 102.794 L/kg and 10.4424 L/kg and 7.27861 L/kg and 7.52393 L/kg and 8.81315 L/kg
same,Vz_obs,[1]; [4],184.58 L/kg and 386.714 L/kg and 15.7633 L/kg and 11.2559 L/kg and 13.087 L/kg and 11.7142 L/kg
same,Vz_pred,[1]; [4],183.332 L/kg and 385.636 L/kg and 15.8341 L/kg and 11.2918 L/kg and 13.154 L/kg and 11.7784 L/kg
same,AUC (Last),"[1]; Slc28a1+/+ mice, plasma, single i.v. dFdC 50 mg/kg",81307.3 ± 4123.2 ng x min/mL and 81307 ng x min/mL
same,AUC (Last),"[1]; Slc28a1-/- mice, plasma, single i.v. dFdC 50 mg/kg",52203.2 ± 3611.3 ng x min/mL and 52203 ng x min/mL
same,CL (systemic clearance),"[1]; Slc28a1-/- mice, single i.v. dFdC 50 mg/kg",950 mL/min/kg
same,concentration at 10 min,"[1]; female, mouse, plasma, intravenous, 50 mg/kg, Cp (Gemcitabine), KO mice, single iv gemcitabine 50mg/kg, 10 min",1940 ng/mL
same,concentration at 60 min,"[1]; female, mouse, plasma, intravenous, 50 mg/kg, Cp (Gemcitabine), KO mice, single iv gemcitabine 50mg/kg, 60 min",28.8 ng/mL
same,AUC(0-inf),"[1]; female, mouse, plasma, iv, 50 mg/kg, AUCINF_obs, Gemcitabine in plasma, WT mice, iv gemcitabine 50mg/kg, per mouse",1120 ng·h/mL
same,AUC(0-inf),"[1]; female, mouse, plasma, iv, 50 mg/kg, AUCINF_pred, Gemcitabine in plasma, WT mice, iv gemcitabine 50mg/kg, per mouse",1130 ng·h/mL
same,AUC,"[1]; female, mouse, plasma, iv, 50 mg/kg, AUCall, Gemcitabine in plasma, WT mice, iv gemcitabine 50mg/kg, per mouse",1010 ng·h/mL
same,AUC(0-t),"[1]; female, mouse, plasma, iv, 50 mg/kg, AUClast, Gemcitabine in plasma, WT mice, iv gemcitabine 50mg/kg, per mouse",1010 ng·h/mL
same,clearance,"[1]; female, mouse, plasma, iv, 50 mg/kg, CL (systemic clearance), Slc28a1+/+ mice, single i.v. dFdC 50 mg/kg",607 mL/min/kg
same,clearance,"[1]; female, mouse, plasma, iv, 50 mg/kg, CL (systemic clearance), Slc28a1-/- mice, single i.v. dFdC 50 mg/kg",951 ± 167 mL/min/kg
same,clearance,"[1]; female, mouse, plasma, iv, 50 mg/kg, Cl_obs, Gemcitabine in plasma, WT mice, iv gemcitabine 50mg/kg, per mouse",745 mL/min/kg
same,Cmax,[1]; [5],3650 ± 408 ng/mL
same,Cmax,[1]; [6],3120 ± 335 ng/mL
same,half-life,[1]; [5],13.6 ± 0.67 min
same,half-life,[1]; [6],11.5 ± 0.81 min
same,Tmax,"[1]; female, mouse, plasma, iv, 50 mg/kg, Tmax, Slc28a1+/+ mice, plasma, single i.v. dFdC 50 mg/kg",~5 min
same,Tmax,"[1]; female, mouse, plasma, iv, 50 mg/kg, Tmax, Slc28a1-/- mice, single i.v. dFdC 50 mg/kg",~5 min
same,Vd,"[1]; female, mouse, plasma, iv, 50 mg/kg, Slc28a1+/+ mice, single i.v. dFdC 50 mg/kg",14.4 L/kg
same,Vd,[1]; [6],14.1 L/kg
same,Cp (Gemcitabine),"[1]; plasma, KO mice, single iv gemcitabine 50mg/kg, 10 min",2505.77 ng/mL and 1699.01 ng/mL and 1487.77 ng/mL and 1743.2 ng/mL and 1817.05 ng/mL
same,Cp (Gemcitabine),"[1]; plasma, KO mice, single iv gemcitabine 50mg/kg, 60 min",30.3338 ng/mL and 29.5353 ng/mL and 27.3213 ng/mL and 28.2215 ng/mL and 27.5324 ng/mL
same,"Survival, Days (individual mice)","KPC cells [2]; CNT1 (Slc28a1-/-) Gemcitabine (25mg/ml) group, Fig. 6E source data",27 days and 32 days and 35 days and 39 days
same,"Survival, Days (individual mice)","KPC cells [2]; CNT1 (Slc28a1-/-) Gemcitabine (37mg/ml) group, Fig. 6E source data",30 days and 43 days and 45 days and 46 days
same,"Survival, Days (individual mice)","KPC cells [2]; CNT1 (Slc28a1-/-) Gemcitabine group, Fig. 6D source data",26 days and 43 days and 35 days and 23 days and 45 days
same,"Survival event flag (1 = event, 0 = censored), individual mice","KPC cells [2]; CNT1 + Gemcitabine (Slc28a1-/-), Fig. 6D source data",1
same,"Survival event flag (1 = event, 0 = censored), individual mice","KPC cells [2]; CNT1 Gemcitabine (25mg/ml), Fig. 6E source data, column headed CNT1 + Vehicle",1
same,"Survival event flag (1 = event, 0 = censored), individual mice","KPC cells [2]; CNT1 Gemcitabine (37mg/ml), Fig. 6E source data",1
same,mice remaining healthy at day 45,"KPC cells [2]; Slc28a1+/+ mice, dFdC 25 mg/kg i.v.",approximately 66%
same,median overall survival,"KPC cells [2]; Slc28a1+/+ mice, dFdC 25 mg/kg i.v. twice a week, Fig. 6D",> 50 days
same,day by which all mice died,"KPC cells [2]; Slc28a1-/- mice, dFdC 25 mg/kg i.v.",≤ 45 days
same,median overall survival,"KPC cells [2]; Slc28a1-/- mice, dFdC 25 mg/kg i.v. twice a week, Fig. 6D",39 days
same,median overall survival,"KPC cells [2]; Slc28a1-/- mice, dFdC 37 mg/kg i.v. twice a week, Fig. 6E",42 days
same,"Survival event flag (1 = event, 0 = censored), individual mice","KPC cells [2]; WT + Gemcitabine, Fig. 6D source data",0 and 1
same,"Survival, Days (individual mice)","KPC cells [2]; WT Gemcitabine group, Fig. 6D source data, event flag in WT + Gemcitabine",50 days and 33 days and 45 days
same,"Tumor burden (bioluminescent imaging signal), individual mice","KPC cells [3]; day 7, Slc28a1-/- mice",-32133333333 and 23906666667 and -21903333333 and -24593333333 and -34283333333 and 89006666667
same,"Tumor burden (bioluminescent imaging signal), individual mice","KPC cells [3]; day 7, wild-type mice",59739000000 and -37121000000 and -92035000000 and 9139000000 and 52739000000 and 7539000000
same,"Tumor burden (bioluminescent imaging signal), individual mice","KPC cells [3]; day 14, Slc28a1-/- mice",144007000000 and 59806666667 and 55206666667 and 122107000000 and 12746666667 and 52806666667
same,"Tumor burden (bioluminescent imaging signal), individual mice","KPC cells [3]; day 14, wild-type mice",127000000000 and 202000000000 and 71900000000 and 123000000000 and 33800000000 and -44800000000
same,"Tumor burden (bioluminescent imaging signal), individual mice","KPC cells [3]; day 21, Slc28a1-/- mice",903000000000 and 356000000000 and 622000000000 and 1010000000000 and 2710000000000 and 506000000000
same,"Tumor burden (bioluminescent imaging signal), individual mice","KPC cells [3]; day 21, wild-type mice",998000000000 and 735000000000 and 252000000000 and 420000000000 and 526000000000 and 763000000000
same,"Tumor burden (bioluminescent imaging signal), individual mice","KPC cells [3]; day 25, Slc28a1-/- mice",1770000000000 and 1210000000000 and 722000000000 and 1860000000000 and 1930000000000 and 2060000000000
same,"Tumor burden (bioluminescent imaging signal), individual mice","KPC cells [3]; day 25, wild-type mice",1230000000000 and 109000000000 and 355000000000 and 803000000000 and 1440000000000 and 1090000000000
